{"source": "ChEMBL document CHEMBL5120841", "about": "“Discovery of novel pleuromutilin derivatives as potent antibacterial agents” (2022)", "key": {"[1]": {"test_system": "Staphylococcus aureus", "assay": "Antibacterial activity against methicillin-resistant Staphylococcus aureus BNCC 337371 assessed as bacterial growth inhibition incubated for 18 to 24 hrs by microtiter dilution method", "type": "functional", "settings": "time 18-24 hrs"}, "[2]": {"test_system": "Staphylococcus epidermidis", "assay": "Antibacterial activity against methicillin-resistant Staphylococcus epidermidis ATCC 51625 assessed as bacterial growth inhibition incubated for 18 to 24 hrs by microtiter dilution method", "type": "functional", "settings": "time 18-24 hrs"}, "[3]": {"test_system": "Staphylococcus aureus", "assay": "Antibacterial activity against Staphylococcus aureus ATCC 25923 assessed as bacterial growth inhibition incubated for 18 to 24 hrs by microtiter dilution method", "type": "functional", "settings": "time 18-24 hrs"}, "[4]": {"test_system": "Bacillus subtilis", "assay": "Antibacterial activity against Bacillus subtilis assessed as bacterial growth inhibition incubated for 18 to 24 hrs by microtiter dilution method", "type": "functional", "settings": "time 18-24 hrs"}, "[5]": {"test_system": "Enterococcus faecalis", "assay": "Antibacterial activity against Enterococcus faecalis assessed as bacterial growth inhibition incubated for 18 to 24 hrs by microtiter dilution method", "type": "functional", "settings": "time 18-24 hrs"}, "[6]": {"test_system": "Escherichia coli", "assay": "Antibacterial activity against Escherichia coli CICC 10389 assessed as bacterial growth inhibition incubated for 18 to 24 hrs by microtiter dilution method", "type": "functional", "settings": "time 18-24 hrs"}, "[7]": {"test_system": "Staphylococcus aureus", "assay": "Antibacterial activity against methicillin-resistant Staphylococcus aureus BNCC 337371 assessed as reduction on bacterial count at 6X MIC incubated for 24 hrs by time killing assay", "type": "functional"}, "[8]": {"test_system": "Staphylococcus aureus", "assay": "Antibacterial activity against Staphylococcus aureus ATCC 25923 assessed as reduction on bacterial count at 6X MIC incubated for 24 hrs by time killing assay", "type": "functional"}, "[9]": {"test_system": "Staphylococcus aureus", "assay": "Antibacterial activity against methicillin-resistant Staphylococcus aureus BNCC 337371 infected in Kunming mouse assessed as reduction on bacterial growth by measuring survival rate at ip dosed measured after 7 days by Bliss method", "type": "functional", "settings": "BNCC 337371, 168 h, time 7 day"}, "[10]": {"test_system": "Staphylococcus aureus", "assay": "Antibacterial activity against methicillin-resistant Staphylococcus aureus BNCC 337371 infected in Kunming mouse lung assessed as reduction on bacterial growth at 40 mg/kg,ip dosed measured after 7 days by 10-fold dilution method", "type": "functional", "settings": "time 7 day"}, "[11]": {"test_system": "Staphylococcus aureus", "assay": "Antibacterial activity against methicillin-resistant Staphylococcus aureus BNCC 337371 infected in Kunming mouse lung assessed as reduction on bacterial growth at 15 mg/kg,ip dosed measured after 7 days by 10-fold dilution method", "type": "functional", "settings": "time 7 day"}, "[12]": {"test_system": "Staphylococcus aureus", "assay": "Antibacterial activity against methicillin-resistant Staphylococcus aureus BNCC 337371 infected in Kunming mouse liver assessed as reduction on bacterial growth at 40 mg/kg,ip dosed measured after 7 days by 10-fold dilution method", "type": "functional, organism-based", "settings": "time 7.0 day"}, "[13]": {"test_system": "Staphylococcus aureus", "assay": "Antibacterial activity against methicillin-resistant Staphylococcus aureus BNCC 337371 infected in Kunming mouse kidney assessed as reduction on bacterial growth at 40 mg/kg,ip dosed measured after 7 days by 10-fold dilution method", "type": "functional", "settings": "time 7 day"}, "[14]": {"test_system": "Staphylococcus aureus", "assay": "Antibacterial activity against methicillin-resistant Staphylococcus aureus BNCC 337371 infected in Kunming mouse lung assessed as reduction on alveolar diaphragm thickening at 40 mg/kg,ip measured after 7 days by hematoxylin and eosin staining based light microscopic analysis", "type": "functional, organism-based", "settings": "time 7.0 day"}, "[15]": {"test_system": "Staphylococcus aureus", "assay": "Antibacterial activity against methicillin-resistant Staphylococcus aureus BNCC 337371 infected in Kunming mouse lung assessed as reduction on alveolar diaphragm thickening at 15 mg/kg,ip measured after 7 days by hematoxylin and eosin staining based light microscopic analysis", "type": "functional, organism-based", "settings": "time 7.0 day"}, "[16]": {"test_system": "Staphylococcus aureus", "assay": "Antibacterial activity against methicillin-resistant Staphylococcus aureus BNCC 337371 infected in Kunming mouse lung assessed as reduction on neutrophil infiltration at 40 mg/kg,ip measured after 7 days by hematoxylin and eosin staining based light microscopic analysis", "type": "functional, organism-based", "settings": "time 7.0 day"}, "[17]": {"test_system": "Staphylococcus aureus", "assay": "Antibacterial activity against methicillin-resistant Staphylococcus aureus BNCC 337371 infected in Kunming mouse lung assessed as reduction on neutrophil infiltration at 15 mg/kg,ip measured after 7 days by hematoxylin and eosin staining based light microscopic analysis", "type": "functional, organism-based", "settings": "time 7.0 day"}, "[18]": {"test_system": "Staphylococcus aureus", "assay": "Antibacterial activity against methicillin-resistant Staphylococcus aureus BNCC 337371 infected in Kunming mouse lung assessed as reduction on lymphocyte infiltration at 40 mg/kg,ip measured after 7 days by hematoxylin and eosin staining based light microscopic analysis", "type": "functional, organism-based", "settings": "time 7.0 day"}, "[19]": {"test_system": "Staphylococcus aureus", "assay": "Antibacterial activity against methicillin-resistant Staphylococcus aureus BNCC 337371 infected in Kunming mouse lung assessed as reduction on lymphocyte infiltration at 15 mg/kg,ip measured after 7 days by hematoxylin and eosin staining based light microscopic analysis", "type": "functional, organism-based", "settings": "time 7.0 day"}}, "note": "Calls of active or inactive are those of the source. The rule behind the calls is not given here."}
{"smiles": "C=C[C@]1(C)C[C@@H](OC(=O)CSc2nc(C)c(C(=O)OCC)c(C)n2)[C@]2(C)[C@H](C)CC[C@]3(CCC(=O)[C@H]32)[C@@H](C)[C@@H]1O", "values": [{"measurement": "MIC", "setting": "[1]", "result": "≤ 0.0156", "unit": "µg/mL"}, {"measurement": "MIC", "setting": "[2]", "result": "≤ 0.0156", "unit": "µg/mL"}, {"measurement": "MIC", "setting": "[3]", "result": "≤ 0.0156", "unit": "µg/mL"}, {"measurement": "MIC", "setting": "[4]", "result": 4, "unit": "µg/mL"}, {"measurement": "MIC", "setting": "[5]", "result": "> 16", "unit": "µg/mL"}, {"measurement": "MIC", "setting": "[6]", "result": "> 16", "unit": "µg/mL"}, {"measurement": "Activity", "setting": "[7]", "result": 2.44, "unit": "log10CFU/ml"}, {"measurement": "Activity", "setting": "[8]", "result": 3.62, "unit": "log10CFU/ml"}, {"measurement": "ED50", "setting": "[9]", "result": 16.1, "unit": "mg/kg"}, {"measurement": "Activity", "setting": "[10]", "result": 4.95, "unit": "log10CFU/ml"}, {"measurement": "Activity", "setting": "[11]", "result": 2.97, "unit": "log10CFU/ml"}, {"measurement": "Activity", "setting": "[12]", "result": "Active"}, {"measurement": "Activity", "setting": "[13]", "result": 3.24, "unit": "log10CFU/ml"}, {"measurement": "Activity", "setting": "[14]", "result": "Active"}, {"measurement": "Activity", "setting": "[15]", "result": "Active"}, {"measurement": "Activity", "setting": "[16]", "result": "Active"}, {"measurement": "Activity", "setting": "[17]", "result": "Active"}, {"measurement": "Activity", "setting": "[18]", "result": "Active"}, {"measurement": "Activity", "setting": "[19]", "result": "Active"}]}
